The record followed here is article PMC6321601 (Molecules, 2018).

Bounds are passed on as bounds.

In experiment [1] the test system is HepG-2 human hepatocellular carcinoma cells. The experiment in a line: MTT assay, proliferation of HepG-2 cells. It counts as cell-based. Conditions: Homo sapiens, HepG2, 72 h incubation, mean of three independent experiments. As for the experimental part: (§1) HepG-2 human hepatocellular carcinoma cells and L-O2 human normal liver cells were maintained in DMEM culture medium supplemented with 10% FBS at 37 °C under a humidified atmosphere with 5% CO2.
(§2) HepG-2 and L-O2 cells in logarithmic growth phase were seeded into a 96-well plate at 5 × 10^3/well/200 µL. After 12 h, compounds at different concentrations were added and incubated for 72 h at 37 °C, 5% CO2. Then, 20 µL MTT (5 mg/mL) was added into each well and incubated for 4 h. The supernatant was discarded, and the precipitate was dissolved with DMSO. The absorbance of the optical density (OD) at 570 nm was detected using a microplate reader and the IC50 was calculated with GraphPad Prism 5.
(In general: Formazan colour is commonly taken as a measure of viable cells.)

Experiment [2] relates to L-O2 human normal liver cells. The experiment in a line: MTT assay, toxicity against L-O2 normal cells. Type of experiment: cell-based. Conditions: Homo sapiens, 72 h incubation, mean of three independent experiments. As for the experimental part:
as §1, §2

With `CC(=O)OC(C)(C)/C=C/C(=O)[C@](C)(O)C1[C@H](OC(=O)CCCN(C)C(=O)OC(C)(C)C)C[C@@]2(C)C3CC=C4C(C[C@H](O)C(=O)C4(C)C)[C@]3(C)C(=O)C[C@]12C` (stereo partly drawn) [Compound 3f, (2S,9R,13R,14S,16R)-17-((R,E)-6-Acetoxy-2-hydroxy-6-methyl-3-oxohept-4-en-2-yl)-2-hydroxy-4,4,9,13,14-pentamethyl-3,11-dioxo-2,3,4,7,8,9,10,11,12,13,14,15,16,17-tetradecahydro-1H-cyclopenta[a]phenanthren-16-yl 4-((tert-butoxycarbonyl)(methyl)amino)butanoate], the IC50 (in general, the concentration needed to halve the response being measured) amounted to 930 ± 60 nM in experiment [1] and 410 ± 110 nM in experiment [2].

For `CC(=O)OC(C)(C)/C=C/C(=O)[C@](C)(O)C1[C@H](OC(=O)CCC(=O)OCCOc2no[n+]([O-])c2S(=O)(=O)c2ccccc2)C[C@@]2(C)C3CC=C4C(CC(O)C(=O)C4(C)C)[C@]3(C)C(=O)C[C@]12C` (stereo partly drawn) [Compound 10a, 4-(2-((4-(((9R,13R,14S,16R)-17-((R,E)-6-Acetoxy-2-hydroxy-6-methyl-3-oxohept-4-en-2-yl)-2-hydroxy-4,4,9,13,14-pentamethyl-3,11-dioxo-2,3,4,7,8,9,10,11,12,13,14,15,16,17-tetradecahydro-1H-cyclopenta[a]phenanthren-16-yl)oxy)-4-oxobutanoyl)oxy)ethoxy)-3-(phenylsulfonyl)-1,2,5-oxadiazole 2-oxide], the IC50 worked out at 820 ± 330 nM in experiment [1] and 2040 ± 670 nM in experiment [2].

On to `CC(=O)OC(C)(C)/C=C/C(=O)[C@](C)(O)C1[C@H](OC(=O)CCC(=O)OCCCCOc2no[n+]([O-])c2S(=O)(=O)c2ccccc2)C[C@@]2(C)C3CC=C4C(CC(O)C(=O)C4(C)C)[C@]3(C)C(=O)C[C@]12C` (stereo partly drawn) [Compound 10c, 4-(4-((4-(((9R,13R,14S,16R)-17-((R,E)-6-Acetoxy-2-hydroxy-6-methyl-3-oxohept-4-en-2-yl)-2-hydroxy-4,4,9,13,14-pentamethyl-3,11-dioxo-2,3,4,7,8,9,10,11,12,13,14,15,16,17-tetradecahydro-1H-cyclopenta[a]phenanthren-16-yl)oxy)-4-oxobutanoyl)oxy)butoxy)-3-(phenylsulfonyl)-1,2,5-oxadiazole 2-oxide], for which the 50% inhibitory concentration (IC50) was 520 ± 90 nM in experiment [1] and 2100 ± 1410 nM in experiment [2].

As for `CC(=O)OC(C)(C)/C=C/C(=O)[C@](C)(O)C1[C@H](OC(=O)c2ccc(F)cc2)C[C@@]2(C)C3CC=C4C(C[C@H](O)C(=O)C4(C)C)[C@]3(C)C(=O)C[C@]12C` (stereo partly drawn) [Compound 3i, (2S,9R,13R,14S,16R)-17-((R,E)-6-Acetoxy-2-hydroxy-6-methyl-3-oxohept-4-en-2-yl)-2-hydroxy-4,4,9,13,14-pentamethyl-3,11-dioxo-2,3,4,7,8,9,10,11,12,13,14,15,16,17-tetradecahydro-1H-cyclopenta[a]phenanthren-16-yl 4-fluorobenzoate], the IC50 was 7420 ± 400 nM in experiment [1] and 4420 ± 970 nM in experiment [2].

In the case of `COc1cc(/C=C/C(=O)O[C@@H]2C[C@@]3(C)C4CC=C5C(C[C@H](O)C(=O)C5(C)C)[C@]4(C)C(=O)C[C@]3(C)C2[C@@](C)(O)C(=O)/C=C/C(C)(C)OC(C)=O)cc(OC)c1` (stereo partly drawn) [Compound 3q, (2S,9R,13R,14S,16R)-17-((R,E)-6-Acetoxy-2-hydroxy-6-methyl-3-oxohept-4-en-2-yl)-2-hydroxy-4,4,9,13,14-pentamethyl-3,11-dioxo-2,3,4,7,8,9,10,11,12,13,14,15,16,17-tetradecahydro-1H-cyclopenta[a]phenanthren-16-yl (E)-3-(3,5-dimethoxyphenyl)acrylate], the half-inhibitory concentration (IC50) in experiment [1] was 3850 ± 630 nM; in experiment [2], 5250 ± 1630 nM.

Turning to `CC(=O)OC(C)(C)/C=C/C(=O)[C@](C)(O)C1[C@H](OC(=O)CCc2ccccc2NC(=O)OC(C)(C)C)C[C@@]2(C)C3CC=C4C(C[C@H](O)C(=O)C4(C)C)[C@]3(C)C(=O)C[C@]12C` (stereo partly drawn) [Compound 3g, (2S,9R,13R,14S,16R)-17-((R,E)-6-Acetoxy-2-hydroxy-6-methyl-3-oxohept-4-en-2-yl)-2-hydroxy-4,4,9,13,14-pentamethyl-3,11-dioxo-2,3,4,7,8,9,10,11,12,13,14,15,16,17-tetradecahydro-1H-cyclopenta[a]phenanthren-16-yl 3-(2-((tert-butoxycarbonyl)amino)phenyl)propanoate], the half-inhibitory concentration (IC50) in experiment [1] was 220 ± 110 nM; in experiment [2] it was 42 ± 1 nM.

Turning to `CC(=O)OC(C)(C)/C=C/C(=O)[C@](C)(O)C1[C@H](OC(=O)/C=C/c2ccccc2)C[C@@]2(C)C3CC=C4C(C[C@H](OC(=O)/C=C/c5ccccc5)C(=O)C4(C)C)[C@]3(C)C(=O)C[C@]12C` (stereo partly drawn) [Compound 4, (2S,9R,13R,14S,16R)-17-((R,E)-6-Acetoxy-2-hydroxy-6-methyl-3-oxohept-4-en-2-yl)-4,4,9,13,14-pentamethyl-3,11-dioxo-2,3,4,7,8,9,10,11,12,13,14,15,16,17-tetradecahydro-1H-cyclopenta[a]phenanthrene-2,16-diyl (2E,2′E)-bis(3-phenylacrylate)], the IC50 in experiment [1] and in experiment [2] was above 20000 nM throughout.

In the case of `COc1cccc2c1C(=O)c1c(O)c3c(c(O)c1C2=O)C[C@@](O)(C(=O)CO)C[C@@H]3O[C@H]1C[C@H](N)[C@H](O)[C@H](C)O1` [ADR, adriamycin, reference compound], the results for the IC50 in experiment [1] and in experiment [2] were 300 ± 50 nM and 41 ± 13 nM, respectively.

As for `CC(=O)OC(C)(C)/C=C/C(=O)[C@](C)(O)C1[C@H](OC(=O)CCC(=O)OCC#CCOc2no[n+]([O-])c2S(=O)(=O)c2ccccc2)C[C@@]2(C)C3CC=C4C(CC(O)C(=O)C4(C)C)[C@]3(C)C(=O)C[C@]12C` (stereo partly drawn) [Compound 10m, 4-((4-((4-(((9R,13R,14S,16R)-17-((R,E)-6-Acetoxy-2-hydroxy-6-methyl-3-oxohept-4-en-2-yl)-2-hydroxy-4,4,9,13,14-pentamethyl-3,11-dioxo-2,3,4,7,8,9,10,11,12,13,14,15,16,17-tetradecahydro-1H-cyclopenta[a]phenanthren-16-yl)oxy)-4-oxobutanoyl)oxy)but-2-yn-1-yl)oxy)-3-(phenylsulfonyl)-1,2,5-oxadiazole 2-oxide], the figures for the IC50 in experiment [1] and in experiment [2] were 1350 ± 100 nM and 2940 ± 90 nM, respectively.

In the case of `COc1ccc(C(=O)O[C@@H]2C[C@@]3(C)C4CC=C5C(C[C@H](O)C(=O)C5(C)C)[C@]4(C)C(=O)C[C@]3(C)C2[C@@](C)(O)C(=O)/C=C/C(C)(C)OC(C)=O)cc1` (stereo partly drawn) [Compound 3l, (2S,9R,13R,14S,16R)-17-((R,E)-6-Acetoxy-2-hydroxy-6-methyl-3-oxohept-4-en-2-yl)-2-hydroxy-4,4,9,13,14-pentamethyl-3,11-dioxo-2,3,4,7,8,9,10,11,12,13,14,15,16,17-tetradecahydro-1H-cyclopenta[a]phenanthren-16-yl 4-methoxybenzoate], the values for the concentration for half-maximal inhibition (IC50) in experiment [1] and in experiment [2] were 3710 ± 1690 nM and 2470 ± 470 nM, respectively.

`CC(=O)OC(C)(C)/C=C/C(=O)[C@](C)(O)C1[C@H](OC(=O)CCC(=O)OCCCCCCCOc2no[n+]([O-])c2S(=O)(=O)c2ccccc2)C[C@@]2(C)C3CC=C4C(CC(O)C(=O)C4(C)C)[C@]3(C)C(=O)C[C@]12C` (stereo partly drawn) [Compound 10f, 4-((7-((4-(((9R,13R,14S,16R)-17-((R,E)-6-Acetoxy-2-hydroxy-6-methyl-3-oxohept-4-en-2-yl)-2-hydroxy-4,4,9,13,14-pentamethyl-3,11-dioxo-2,3,4,7,8,9,10,11,12,13,14,15,16,17-tetradecahydro-1H-cyclopenta[a]phenanthren-16-yl)oxy)-4-oxobutanoyl)oxy)heptyl)oxy)-3-(phenylsulfonyl)-1,2,5-oxadiazole 2-oxide]: the IC50 in experiment [1] was found to be 830 ± 380 nM; in experiment [2] it was 3250 ± 400 nM.

In the case of `CC(=O)OC(C)(C)/C=C/C(=O)[C@](C)(O)C1[C@H](OC(=O)CCC(=O)OCCCCCCCCCCCCOc2no[n+]([O-])c2S(=O)(=O)c2ccccc2)C[C@@]2(C)C3CC=C4C(CC(O)C(=O)C4(C)C)[C@]3(C)C(=O)C[C@]12C` (stereo partly drawn) [Compound 10k, 4-((12-((4-(((9R,13R,14S,16R)-17-((R,E)-6-Acetoxy-2-hydroxy-6-methyl-3-oxohept-4-en-2-yl)-2-hydroxy-4,4,9,13,14-pentamethyl-3,11-dioxo-2,3,4,7,8,9,10,11,12,13,14,15,16,17-tetradecahydro-1H-cyclopenta[a]phenanthren-16-yl)oxy)-4-oxobutanoyl)oxy)dodecyl)oxy)-3-(phenylsulfonyl)-1,2,5-oxadiazole 2-oxide], the IC50 in experiment [1] and in experiment [2] was above 20000 nM throughout.

`CC(=O)OC(C)(C)/C=C/C(=O)[C@](C)(O)C1[C@H](OC(=O)CCC(=O)O)C[C@@]2(C)C3CC=C4C(C[C@H](O)C(=O)C4(C)C)[C@]3(C)C(=O)C[C@]12C` (stereo partly drawn) [Compound 11, 4-(((2S,9R,13R,14S,16R)-17-((R,E)-6-Acetoxy-2-hydroxy-6-methyl-3-oxohept-4-en-2-yl)-2-hydroxy-4,4,9,13,14-pentamethyl-3,11-dioxo-2,3,4,7,8,9,10,11,12,13,14,15,16,17-tetradecahydro-1H-cyclopenta[a]phenanthren-16-yl)oxy)-4-oxobutanoic acid]: the half-inhibitory concentration (IC50) in experiment [1] and in experiment [2] was above 20000 nM in each case.

Turning to `CC(=O)OC(C)(C)/C=C/C(=O)[C@](C)(O)C1[C@H](OC(=O)c2ccc(C)cc2)C[C@@]2(C)C3CC=C4C(C[C@H](O)C(=O)C4(C)C)[C@]3(C)C(=O)C[C@]12C` (stereo partly drawn) [Compound 3h, (2S,9R,13R,14S,16R)-17-((R,E)-6-Acetoxy-2-hydroxy-6-methyl-3-oxohept-4-en-2-yl)-2-hydroxy-4,4,9,13,14-pentamethyl-3,11-dioxo-2,3,4,7,8,9,10,11,12,13,14,15,16,17-tetradecahydro-1H-cyclopenta[a]phenanthren-16-yl 4-methylbenzoate], the IC50 in experiment [1] was determined as 9620 ± 1340 nM; in experiment [2] it was 6900 ± 1370 nM.
